For data set [1], the system named is Plasmodium falciparum. In words: NOVARTIS: Inhibition of Plasmodium falciparum 3D7 (drug-susceptible) proliferation in erythrocyte-based infection assay. To be noted: Plasmodium falciparum, 3D7. Format: functional, organism-based.
Data set [2] concerns Plasmodium falciparum. In words: NOVARTIS: Inhibition of Plasmodium falciparum W2 (drug-resistant) proliferation in erythrocyte-based infection assay. To be noted: Plasmodium falciparum, W2; read-out: EC50. In kind it is functional, organism-based.
Data set [3] can be described thus: NOVARTIS: Cytotoxicity against human hepatocellular carcinoma cell line (Huh7). In kind it is toxicity, cell-based, Huh-7. To be noted: Huh7 cells (hepatocellular carcinoma cell line).

Some results are limits rather than exact numbers.

Regarding `CS/C(Cl)=C(/NC(C)=O)[P+](c1ccccc1)(c1ccccc1)c1ccccc1.[O-][Cl+3]([O-])([O-])[O-]`, the EC50 (as a rule, the midpoint of the concentration-response curve) in data set [1] came out at 0.115 µM; in data set [2], 0.1 µM. For the same molecule, the CC50 (in general, the concentration that lowers cell viability or growth by half) in data set [3] was above 10 µM.
The like results for `O=C1c2cc([N+](=O)[O-])ccc2-n2c1nc1ccccc1c2=O` were, in that order, 0.148 µM, 0.101 µM and above 10 µM.
The like results for `Cc1ccc(NC(=S)NCCO)cc1C` were, in that order, 1.81 µM, 1.02 µM and above 100 µM.
On to `COc1ccc(C=Cc2cc[n+](C)cc2)cc1OC`, for which the EC50 in data set [1] is 1.82 µM; in data set [2] it was 1.01 µM. In data set [3], this molecule gave a CC50 above 100 µM.
Consider `O=C(c1ccc([N+](=O)[O-])o1)N1CCN(c2cccc(Cl)c2)CC1`, for which the EC50 in data set [1] was found to be 6.33 µM; in data set [2] it was 1.04 µM. Also, the CC50 in data set [3] is above 100 µM.
The like results for `COc1cc(C=NNC(=O)c2ccc(C(=O)NN=Cc3ccc(O)c(OC)c3)cc2)ccc1O` were, in that order, 0.652 µM, 1.03 µM and above 100 µM.
Consider `CC(Cl)=CC[N+]1(CC#Cc2cccc3ccccc23)CCOCC1`, for which the EC50 amounted to 1.16 µM in data set [1] and 1 µM in data set [2]. In addition, the CC50 in data set [3] was above 100 µM.
`CCCN1CCc2c(sc3nc(SCC(=O)c4ccccc4)nc(N)c23)C1`: the EC50 in data set [1] was 1.42 µM; in data set [2] it was 1.01 µM. Moreover, the CC50 in data set [3] was above 100 µM.
The like results for `CCOC(=O)C1=C(C)NC2=C(C(=O)C(C(=O)OCC)C(c3ccccc3OC)C2)C1c1ccc(Cl)cc1` (stereo not given) were, in that order, 5.42 µM, 1 µM and above 100 µM.
The like results for `Cc1cc(Nc2ccc(Cl)c(C)c2)n2nc(C)nc2n1` were, in that order, 0.983 µM, 1 µM and above 100 µM.
Turning to `CN1CC=C(/C=C/c2c[nH]c3ccccc23)CC1`, the EC50 in data set [1] came to 0.483 µM; in data set [2], 0.1 µM. This molecule came in with a CC50 in data set [3] above 10 µM.
The like results for `COc1cc(NC(C)=C2C(=O)c3ccccc3C2=O)c(OC)cc1Cl` were, in that order, 2.4 µM, 1.04 µM and above 100 µM.
As to `CCCCN(CC(=O)Nc1cc(C(C)(C)C)nn1-c1ccc(Cl)cc1)C(=O)c1ccc(OC)cc1`, the results for the EC50 in data set [1] and in data set [2] were above 1.39 µM and 0.0527 µM, respectively. In data set [3], this molecule gave a CC50 of 5.08 µM.
`O=C(COc1cccc2ccccc12)NC1CCS(=O)(=O)C1` (stereo not given): the EC50 is above 12.5 µM in data set [1] and 1 µM in data set [2]. Further, the CC50 in data set [3] is above 100 µM.
The like results for `O=C(Nc1ccc(C2=NCCN2)c(Cl)c1)c1cccc(C(=O)Nc2ccc(C3=NCCN3)c(Cl)c2)c1` were, in that order, 0.307 µM, 0.103 µM and above 10 µM.
For `COC(=O)c1cccc(-c2cc(Cl)c3c(c2)CC(CNC(=O)c2c(C)noc2C)O3)c1` (stereo not given), the values for the EC50 in data set [1] and in data set [2] were 0.881 µM and 0.786 µM, respectively. The molecule also gave a CC50 in data set [3] of 75.9 µM.
The like results for `CC(C)(C)CC(C)(C)Nc1c(-c2ccccc2OC(=O)C2CCC2)nc2ccccn12` were, in that order, 0.729 µM, 0.104 µM and above 10 µM.
Regarding `OC(CCN1CCN(C(c2ccccc2)c2ccccc2)CC1)c1ccccc1` (stereo not given), the EC50 in data set [1] was found to be 4.65 µM; in data set [2] it was 1.03 µM. In data set [3], this molecule came in with a CC50 above 100 µM.
The like results for `CN(C)c1nnc(C(C#N)=Cc2cc(C(=O)c3cccc(Cl)c3)cn2C)o1` were, in that order, above 12.5 µM, 1.03 µM and above 100 µM.
Take `COc1cc(NC(C)CCCN(Cc2ccc(OC)c(OC)c2)C(=O)c2ccccc2)c2ncccc2c1` (stereo not given): the results for the EC50 in data set [1] and in data set [2] were 0.529 µM and 0.103 µM, respectively. The CC50 in data set [3] was above 10 µM.
The like results for `Cc1ccnc(Nc2nc(-c3c(C)nc4sccn34)cs2)c1` were, in that order, 1.5 µM, 0.753 µM and above 73.5 µM.
`CC(CN1CCC(n2cc(C(=O)N3CCCC3)nn2)CC1)c1ccccc1` (stereo not given): the results for the EC50 in data set [1] and in data set [2] were 2.41 µM and 1.02 µM, respectively. This molecule also registered a half-maximal cytotoxic concentration (CC50) in data set [3] above 100 µM.
In the case of `Cc1cccc(NS(=O)(=O)c2ccc3[nH]c(=O)ccc3c2)c1C`, the EC50 in data set [1] is above 12.5 µM; in data set [2], 0.838 µM. The molecule also had a CC50 in data set [3] of 81.8 µM.
The like results for `Cc1ccc(Cn2c(=N)n(CC(O)c3ccc(Cl)c(Cl)c3)c3ccccc32)cc1` (stereo not given) were, in that order, 0.107 µM, 0.0613 µM and 6 µM.
`O[C@@]1(c2cc3ccccc3s2)CN2CCC1CC2`: the EC50 worked out at 0.177 µM in data set [1] and 0.101 µM in data set [2]. Besides, the 50% cytotoxic concentration (CC50) in data set [3] is above 10 µM.
Take `CCCCOc1cccc(C(=O)N(Cc2cccs2)c2ccc(OC)cc2)c1`: the EC50 in data set [1] was determined as 0.124 µM; in data set [2], 0.0621 µM. This molecule also registered a CC50 in data set [3] of 6.13 µM.
As to `O=C(C=Cc1ccccc1)NNC(=O)c1cccnc1`, the EC50 in data set [1] was above 12.5 µM; in data set [2], 1.01 µM. In data set [3], this molecule registered a CC50 above 100 µM.
On to `CCc1ccc(C(=O)C[n+]2cc(-c3ccc(C)cc3)n3c2CCC3)cc1`, for which the EC50 in data set [1] worked out at 0.764 µM; in data set [2], 0.333 µM. It took 32.7 µM to reach half-maximal cytotoxicity in data set [3] (CC50).
The like results for `N#CC(=Cc1cn(Cc2ccc(Cl)cc2Cl)c2ccccc12)c1nc2ccccc2[nH]1` were, in that order, 0.27 µM, 1.02 µM and above 100 µM.
The like results for `CC[n+]1c(/C=C/c2ccc(SC)cc2)ccc2ccccc21` were, in that order, 0.0436 µM, 0.102 µM and above 10 µM.
Take `CN(C)CCN(C)Cc1cc(Br)cs1`: the EC50 was above 2.34 µM in data set [1] and 1.01 µM in data set [2]. In addition, the CC50 in data set [3] is above 100 µM.
Turning to `CN1CCCC1CCNCc1cc(-c2ccnc3cc(Cl)ccc23)ccc1O` (stereo not given), the figures for the EC50 in data set [1] and in data set [2] were 0.0314 µM and 0.153 µM, respectively. In data set [3], this molecule returned a CC50 of 15.2 µM.
The like results for `CCN(CC)CCCN(Cc1cc2c(C)cc(C)cc2[nH]c1=O)C(=S)NCCCN(C)C` were, in that order, 2.09 µM, 1 µM and above 100 µM.
`CN1CCCC1CCNc1ncc(C(=O)NCc2ccccc2)c(NCC2CCCCC2)n1` (stereo not given): the EC50 was found to be 0.0544 µM in data set [1] and 0.1 µM in data set [2]. Also, the CC50 in data set [3] is above 10 µM.
With `OC(CNCC1COc2ccccc2O1)c1ccccc1` (stereo not given), the EC50 in data set [1] is above 12.2 µM; in data set [2], 1 µM. In data set [3], this molecule came in with a CC50 above 100 µM.
Take `O=C(CCl)Nc1ccc(N2CCCCC2)cc1`: the EC50 in data set [1] worked out at 0.797 µM; in data set [2] it was 0.417 µM. This molecule returned a CC50 in data set [3] of 41.2 µM.
The like results for `Oc1ccccc1-c1nc2ncccn2c1Nc1cccc(C(F)(F)F)c1` were, in that order, 2.12 µM, 1.02 µM and above 100 µM.
Consider `O=c1c2sccc2nc(SCc2cccc([N+](=O)[O-])c2)n1-c1ccc(Br)cc1`, for which the EC50 in data set [1] came out at 3.31 µM; in data set [2] it was 1.02 µM. Further, the CC50 in data set [3] is above 100 µM.
In the case of `COc1ccc(-c2c[n+](Cc3ccccc3Cl)c3n2CCC3)cc1`, the EC50 was 0.578 µM in data set [1] and 0.532 µM in data set [2]. This molecule also showed a CC50 in data set [3] of 52.5 µM.
The like results for `COc1ccc(S(=O)(=O)N=C2C=C(Nc3ccccc3)C(=O)c3ccccc32)cc1` were, in that order, 0.0933 µM, 0.122 µM and 12 µM.
